According to patent US20070219224A1, “Compositions and Methods Relating to Pyrimidine Synthesis Inhibitors” (UAB RESEARCH FOUNDATION, THE, priority 2004, published 2007):

Legend:
RSV-infected BALB/c mice [1] = experiment: Lung water content (wet:dry weight ratio) after RSV infection; assay type: in vivo; details: day 2, systemic treatment
Description: Preparation of viral inocula and infection of mice. Preparation of viral stocks and intranasal infection of eight to twelve week-old pathogen-free BALB/c mice of either sex with RSV strain A2 (10^6 PFU in 100 μl) were performed as described in Davis et al., “Nucleotide-mediated inhibition of alveolar fluid clearance in BALB/c mice after respiratory syncytial virus infection,” Am. J. Physiol. Lung Cell Mol. Physiol. 286:L112-L120. (2004). Data for each experimental group was derived from a minimum of 2 independent infections.
(§1) Systemic inhibition of de novo pyrimidine and purine synthesis. Leflunomide (5-methylisoxazole-4-[4-trifluoromethyl]carboxanilide, 35 mg/kg in distilled water containing 1% methylcellulose) was administered once daily by oral gavage in a volume of 300 μl/mouse for 8 days prior to infection, then throughout the infection period. Vehicle controls were gavaged with an equivalent volume of 1% methylcellulose in distilled water. […]

RSV-infected BALB/c mice [2] = experiment: Nasal potential difference (NPD, NPDAMIL); assay type: in vivo; details: leflunomide throughout the infection period
Description: Measurement of nasal potential difference. The potential difference across the nares of anesthetized mice (with the tail as reference) was measured as previously described Grubb et al., (1994) “Hyperabsorption of Na+ and raised Ca(2+)-mediated Cl-secretion in nasal epithelia of CF mice,” Am. J. Physiol 266:C1478-C1483. A baseline NPD was recorded during perfusion of the nasal epithelium with lactated Ringer's solution. The amiloride-sensitive component of NPD (NPDAMIL) was determined by perfusion with lactated Ringer's solution containing 100 μM amiloride. Current pulses of ±60 nA were applied across the epithelium by a 12V battery in series with a 200 MΩ resistor. Changes in NPD in response to the current pulses (proportional to nasal transepithelial resistance, NRte) were recorded (ΔNPD).
as §1, with “water. Uridine (1 g/kg in 0.9% NaCl) was administered by i.p. injection every 12 hours in a volume of 100 μl (8).” for “water.”

Cc1oncc1C(=O)Nc1ccc(C(F)(F)F)cc1 [Leflunomide, 5-methylisoxazole-4-[4-trifluoromethyl]carboxanilide]
lung water content (wet:dry weight ratio) (in words) (RSV-infected BALB/c mice [1]): normalization of lung wet:dry weight ratios | lung water content (wet:dry weight ratio) (in words) (RSV-infected BALB/c mice [1]; listed as LEF): reverses RSV-induced increased in lung water content | lung water content (wet:dry weight ratio) (in words) (RSV-infected BALB/c mice [1]; listed as leflunomide): restored normal lung wet:dry weight ratios | basal NPD and NPDAMIL (RSV-infected BALB/c mice [2]): completely prevented RSV-induced declines in basal NPD and NPDAMIL
